Test results from ChEMBL document CHEMBL1201862, “PubChem BioAssay data set” (2004).
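Five concentrations, 48 hours, 96-well plates. GI50 = concentration required for 50% inhibition of growth.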 Active and inactive are the calls of the source. Cut-off read from the data, not from the text of the source: active = GI50 up to about 1.1 µM and inactive = higher.

Columns and labels:
Assay in all cases: inhibition of tumour cell growth, NCI panel, 48 h
MOLT-4 = test system: MOLT-4
TK-10 = test system: TK-10
CCRF-CEM = test system: CCRF-CEM
K562 = test system: K562
MDA-MB-435 = test system: MDA-MB-435
KM12 = test system: KM12
MDA-MB-231 = test system: MDA-MB-231
RPMI-8226 = test system: RPMI-8226
SNB-75 = test system: SNB-75
SF-268 = test system: SF-268
OVCAR-4 = test system: OVCAR-4
HCC 2998 = test system: HCC 2998
OVCAR-5 = test system: OVCAR-5
HCT-116 = test system: HCT-116
HOP-62 = test system: HOP-62
PC-3 = test system: PC-3
SK-MEL-5 = test system: SK-MEL-5
U-251 = test system: U-251
OVCAR-3 = test system: OVCAR-3
NCI-H23 = test system: NCI-H23

Compound | GI50 (MOLT-4) | GI50 (TK-10) | GI50 (CCRF-CEM) | GI50 (K562) | GI50 (MDA-MB-435) | GI50 (KM12) | GI50 (MDA-MB-231) | GI50 (RPMI-8226) | GI50 (SNB-75) | GI50 (SF-268) | GI50 (OVCAR-4) | GI50 (HCC 2998) | GI50 (OVCAR-5) | GI50 (HCT-116) | GI50 (HOP-62) | GI50 (PC-3) | GI50 (SK-MEL-5) | GI50 (U-251) | GI50 (OVCAR-3) | GI50 (NCI-H23)
CC1=C(C)SC(=C2Sc3[n-]c(=O)[nH]c(=O)c3S2)S1.CCCC[N+](CCCC)(CCCC)CCCC | 95.1 µM (inactive) | > 100 µM (inactive) | 40.4 µM (inactive) | 49.4 µM (inactive) | 31.6 µM (inactive) | 98.2 µM (inactive) | > 100 µM (inactive) | > 100 µM (inactive) | > 100 µM (inactive) | > 100 µM (inactive) | > 100 µM (inactive) | > 100 µM (inactive) | > 100 µM (inactive) | > 100 µM (inactive) | > 100 µM (inactive) | > 100 µM (inactive) | 28.5 µM (inactive) | > 100 µM (inactive) | 46.1 µM (inactive) | > 100 µM (inactive)
Cc1cccc(-c2nc3ccc([N+](=O)[O-])cc3c(=O)o2)c1 | 27.6 µM (inactive) | 59.3 µM (inactive) | 27.8 µM (inactive) | 35.3 µM (inactive) | 89.7 µM (inactive) | 90.6 µM (inactive) | > 100 µM (inactive) | 45.6 µM (inactive) | > 100 µM (inactive) | 60.3 µM (inactive) | 68.9 µM (inactive) | > 100 µM (inactive) | > 100 µM (inactive) | 42.8 µM (inactive) | 46.1 µM (inactive) | 58.5 µM (inactive) | > 100 µM (inactive) | 44.4 µM (inactive) | 47.9 µM (inactive) | 72.8 µM (inactive)
COc1ccc(C2CC(c3c(O)ccc4ccccc34)=NN2c2ccc([N+](=O)[O-])cc2[N+](=O)[O-])cc1OC (stereo not given) | 4.78 µM (inactive) | 24.3 µM (inactive) | 6.03 µM (inactive) | 3.47 µM (inactive) | 24 µM (inactive) | 13.2 µM (inactive) | 20.9 µM (inactive) | 3.87 µM (inactive) | 20.7 µM (inactive) | 25.4 µM (inactive) | 16.6 µM (inactive) | 28.5 µM (inactive) | 24.3 µM (inactive) | 15.8 µM (inactive) | 21.5 µM (inactive) | 11.5 µM (inactive) | 10.1 µM (inactive) | 17.6 µM (inactive) | 12.1 µM (inactive) | 6.82 µM (inactive)
C=COC(=O)N[C@H]1CCc2cc(OC)c(OC)c(OC)c2-c2ccc(SC)c(=O)cc21 | < 0.01 µM (active) | 0.177 µM (active) | < 0.01 µM (active) | < 0.01 µM (active) | < 0.01 µM (active) | < 0.01 µM (active) | < 0.01 µM (active) | < 0.01 µM (active) | 0.0578 µM (active) | < 0.01 µM (active) | 4.97 µM (inactive) | < 0.01 µM (active) | 0.173 µM (active) | < 0.01 µM (active) | < 0.0157 µM (active) | < 0.01 µM (active) | < 0.01 µM (active) | < 0.01 µM (active) | < 0.01 µM (active) | < 0.01 µM (active)
Cc1c(Cl)cc(C(C)(C)C)c(O)c1Cc1c(C)c(Cl)cc(C(C)(C)C)c1O | 0.818 µM (active) | 2.04 µM (inactive) | 0.303 µM (active) | 0.752 µM (active) | 2.06 µM (inactive) | 1.44 µM (inactive) | 1.65 µM (inactive) | 0.273 µM (active) | 1.5 µM (inactive) | 1.74 µM (inactive) | 1.26 µM (inactive) | 0.796 µM (active) | 3.43 µM (inactive) | 0.536 µM (active) | 2.96 µM (inactive) | 1.64 µM (inactive) | 0.762 µM (active) | 1.51 µM (inactive) | 0.436 µM (active) | 0.656 µM (active)
O=C1O[C@H]2C3C4CCC(C4[C@@H]2I)[C@H]13 (stereo not given in full) | > 100 µM (inactive) | > 100 µM (inactive) | > 100 µM (inactive) | > 100 µM (inactive) | > 100 µM (inactive) | > 100 µM (inactive) | > 100 µM (inactive) | > 100 µM (inactive) | 60.3 µM (inactive) | > 100 µM (inactive) | > 100 µM (inactive) | > 100 µM (inactive) | > 100 µM (inactive) | > 100 µM (inactive) | > 100 µM (inactive) | > 100 µM (inactive) | > 100 µM (inactive) | > 100 µM (inactive) | > 100 µM (inactive) | > 100 µM (inactive)
CCc1nc2c(n1CC)C(=O)c1ccccc1C2=O | 33.9 µM (inactive) | 22.1 µM (inactive) | 45.7 µM (inactive) | 44.5 µM (inactive) | 18.3 µM (inactive) | 45.3 µM (inactive) | 16.9 µM (inactive) | > 100 µM (inactive) | 20.7 µM (inactive) | 69 µM (inactive) | 34.9 µM (inactive) | 42.1 µM (inactive) | 47.2 µM (inactive) | > 10 µM (inactive) | 42.5 µM (inactive) | 18.8 µM (inactive) | > 10 µM (inactive) | 44.2 µM (inactive) | 18.7 µM (inactive) | 46.8 µM (inactive)
